Results from patent US11407741B2, “Compounds and their use as selective inhibitors of caspase-2” (priority 2017, dated 2022).
Where a SMILES comes first, the peptide text is derived from it. [ ]: non-standard residue; d: D form. The star is where a group is joined. Pro(3S-CH2tBu) = CC(C)(C)C[C@H]1CCN[C@@H]1C(=O)O; X4 = CN(Cc1ccccc1)C(=O)/C=C/C(=O)N(CC(=O)O)N*; X3 = O=C(O)CN(N*)C(=O)COc1c(F)cccc1F; Quinaldoyl = O=C(c1ccc2ccccc2n1)*; X1 = c1ncc(CO*)s1

Tested on: hippocampal neurons intoxicated with Aβ1-42 oligomers
Assay: Protection against Abeta neurotoxicity in primary hippocampal neurons in microfluidic chambers
Assay type: cell-based, mice
Set-up: key to Protective effect against Aβ toxicity: +: significant protection against a Aβ-induced cell death, Aβ-induced axonal degeneration, Aβ-induced electrophysiological dysfunction, and/or Aβ-induced synapse loss
Conditions: for Protective effect against Aβ toxicity: hippocampal cells pre-incubated 1 h, then Aβ1-42 oligomers
Description: Hippocampus are micro-dissected from E16 embryos of C57B16/J wt mice (Rene Janvier, France) in cold Gey's Balanced Salt Solution (GBSS, Sigma) supplemented with 0.1% glucose (Life technologies).
Dissected structures are digested with papain (20 U/ML in DMEM, Sigma; St. Louis, Mo., USA) and mechanically dissociated in the presence of DNAse. Hippocampal cells are then rinsed and re-suspended in DMEM (Life Technologies, Inc., Gaithersburg, Md., USA) to a final density of 18 million cells/ml in Neurobasal (Life technologies) and Glutamax (0.1% LifeTechnologies) supplemented with B27 (1/50) and penicilline/sptreptomycine 1% (Gibco).
This cell suspension is then used to fill the reservoirs of microfluidic chambers, as described (Peyrin et al, 2011 Lab Chips 11(21):3663; Deleglise et al, 2014 Acta Neuropathologica Comm. 2: 145). Microfluidic chips are placed in plastic Petri dishes containing H20-EDTA to prevent evaporation and incubated at 37° C. in a humid 5% CO2 atmosphere. The culture medium is renewed every seven days.
Oligomeric form of Aβ1-42 (Tocris Bioscience, MN, USA), is produced according to Stine W B et al (2003) in J Biol Chem 278, pp 11612-11622 and can be controlled by electron microscopy as in Deleglise B et al. in Acta Neuropathol Commun. 2014; 2: 145).
Briefly, Aβ1-42 lyophilized peptides are solubilized at 1 mM in 1, 1, 1, 3, 3, 3,-hexafluoro-2-propanol (HFIP, Sigma Aldrich). After 30 min of incubation at RT, HFIP is evaporated for 12 h under chemical hood and peptides are dried for 1 h (with a Speed Vac at 4° C.). Then, 5 mM Aβ peptide stock solutions are obtained by resolubilization at in dimethylsulfoxide (DMSO, Sigma Aldrich). To obtain oligomers, Aβ peptide stock solution is diluted in cold phenol free DMEM-F12 medium (Life Technologies) to a final concentration of 100 μM. The solution is then incubated 24 h at 4° C. Soluble Aβ oligomer fraction is collected from the supernatant after a centrifugation step at 20 000 g (10 min; 4° C.), and stored at −80° C. until use.
After 18 days of culture in micro fluidic chambers, hippocampal cells are pre-incubated for 1 h with compounds of the invention prior diluted in phenol free DMEM-F12 medium or in phenol free DMEM-F12 medium alone as a control solution. Cells are then intoxicated for 3 h to 6 h or 24 h with 10 or 100 nm of Aβ1-42 oligomers (or with phenol free DMEM-F12 medium alone as a control solution). After the intoxication step, cells are fixed in 4% paraformaldehyde (PFA, Sigma; St. Louis, Mo., USA) for 20 min RT, and labelled as explained below to evaluate synapses status, cell death or axonal degeneration.
Briefly, after the fixation step, cultures cells are washed twice with PBS+Azide 0.1% for 5 min and permeabilized for 10 min with 0.2% Triton X-100 and 0.1% BSA (Bovine Serum Albumin, Sigma) in PBS+Azide 0.1%. Saturation step is then realized by incubating cells during 30 min in PBS+Azide 0.1%+BSA1%. Primary antibodies are then added and the samples incubated at 4° C. overnight in PBS. Afterwards, samples are rinsed twice for 5 min with PBS+Azide 0.1% and further incubated with the corresponding secondary antibody together with phalloidin conjugated to Alexa Fluor 555 for 2 h RT. The chips were then rinsed twice with PBS+Azide 0.1%.
The following antibodies are used: rabbit polyclonal anti-MAP-2 (AB5622; 1/400, MILLIPORE), mouse monoclonal Anti-Bassoon SAP7F407; 1:400, Enzo LifeSciences). Species-specific secondary antibodies coupled to Alexa 350, 488 or 500 are used (1/500, Life Technologies, Inc., Gaithersburg, Md., USA). Phalloidin conjugated to Alexa Fluor 555 (1/500, EnzoLifeTechnologies) is used to stain F-actin.
Images are acquired with an Axio-observer Zl (Zeiss, Germany) fitted with a cooled CCD camera (CoolsnapHQ2, Ropert Scientific). The microscope is controlled with Metamorph and Micro-manager software. Images were analyzed using ImageJ software.

| SMILES | Protective effect against Aβ toxicity | Synapse protection toward Amyloid beta peptide [1-42] oligomers toxicity (FIG. 1) (pretreated at 0.1 μM or 1 μM, Aβ[1-42] oligomers 10 nM, **p<0.01) |
| --- | --- | --- |
| CC(C)[C@H](NC(=O)c1ccc2ccccc2n1)C(=O)N[C@@H](CC(=O)O)C(=O)N[C@H](C(=O)N1CC[C@H](CC(C)(C)C)[C@H]1C(=O)NN(CC(=O)O)C(=O)/C=C/C(=O)N(C)Cc1ccccc1)C(C)C [Compound 5, (S)-4-(((S)-1-((2S,3S)-2-(2-((E)-4-(benzyl(methyl)amino)-4-oxobut-2-enoyl)-2-(carboxymethyl)hydrazinecarbonyl)-3-neopentylpyrrolidin-1-yl)-3-methyl-1-oxobutan-2-yl)amino)-3-((S)-3-methyl-2-(quinoline-2-carboxamido)butanamido)-4-oxobutanoic acid] (Quinaldoyl-VDV[Pro(3S-CH2tBu)]-X4) | + |  |
| CC(C)[C@H](NC(=O)c1ccc2ccccc2n1)C(=O)N[C@@H](CC(=O)O)C(=O)N[C@H](C(=O)N1CC[C@H](CC(C)(C)C)[C@H]1C(=O)N[C@@H](CC(=O)O)C(=O)OCc1cncs1)C(C)C [Compound 3, (S)-4-(((S)-1-((2S,3S)-2-(((S)-3-carboxy-1-oxo-1-(thiazol-5 - ylmethoxy)propan-2-yl)carbamoyl)-3-neopenthylpyrrolidin-1-yl)-3-methyl-1-oxobutan-2-yl)amino)-3-((S)-3-methyl-2-(quinoline-2-carboxamido)butanamido)-4-oxobutanoic acid] (Quinaldoyl-VDV[Pro(3S-CH2tBu)]D-X1) | + |  |
| CC(C)[C@H](NC(=O)[C@H](CC(=O)O)NC(=O)C(=O)Nc1ccccc1C(C)(C)C)C(=O)N1CC[C@H](CC(C)(C)C)[C@H]1C(=O)NN(CC(=O)O)C(=O)COc1c(F)cccc1F [Compound 6, (S)-3-(2-((2-(tert-butyl)phenyl)amino)-2-oxoacetamido)-4-(((S)-1-((2S,3S)-2-(2-(carboxymethyl)-2-(2-(2,6-difluorophenoxy)acetyl)hydrazinecarbonyl)-3-neopentylpyrrolidin-1-yl)-3-methyl-1-oxobutan-2-yl)amino)-4-oxobutanoic acid] | + |  |
| CC(C)[C@H](NC(=O)c1ccc2ccccc2n1)C(=O)N[C@@H](CC(=O)O)C(=O)N[C@H](C(=O)N1CC[C@H](CC(C)(C)C)[C@H]1C(=O)NN(CC(=O)O)C(=O)COc1c(F)cccc1F)C(C)C [Compound 4, (S)-4-(((S)-1-((2S,3S)-2-(2-(carboxymethyl)-2-(2-(2,6-difluorophenoxy)acetyl)hydrazinecarbonyl)-3-neopentylpyrrolidin-1-yl)-3-methyl-1-oxobutan-2-yl)amino)-3-((S)-3-methyl-2-(quinoline-2-carboxamido)butanamido)-4-oxobutanoic acid] (Quinaldoyl-VDV[Pro(3S-CH2tBu)]-X3) | + |  |
| CC(C)[C@H](NC(=O)c1ccc2ccccc2n1)C(=O)N[C@@H](CC(=O)O)C(=O)N[C@H](C(=O)N1CC[C@H](CC(C)(C)C)[C@H]1C(=O)N[C@@H](CC(=O)O)C(=O)COc1c(F)cccc1F)C(C)C (single isomer, unassigned) [Compound 2 enantiomer a] |  | Synapse protection |
